Measured values as given in patent publication US20240398821A1, “FLAVONOID DERIVATIVES WITH GABAA RECEPTOR ACTIVITY AND METHODS OF USE” (RUTGERS, THE STATE UNIVERSITY OF NEW JERSEY, priority 2021, published 2024).

How the values were obtained:
[1] = molecular target: T1, GABAA α5θ3γ2L (Homo sapiens, UniProt P18507+P28472+P31644); test: SyncroPatch automated patch-clamp electrophysiology, PAM mode; type: cell-based
T1 construct: expressed in transfected cells
Experimental: (§1) To evaluate GABAA receptor activity, compounds were evaluated with electrophysiology studies of against 4 GABAA subtypes (GABAA α1β2γ2L, α2θ3γ2L, α5θ3γ2L and α4θ3δ) in positive allosteric modulator (PAM) mode using the SyncroPatch automated platform at room temperature. A 6-point concentration-response curve of each test compound (10, 1, 0.1, 0.01, 0.001, or 0.0001 μM in DMSO). The rapid addition protocol was used, in which compound is rapidly applied and then washed off from the cell. 0.3% DMSO was used as negative control.
(§2) Test compounds: 6-point concentration-response curve of each test compound (10, 1, 0.1, 0.01, 0.001, 0.0001 μM in DMO).
(§3) Positive control: 5-point concentration-response curve of allopregnanolone ([…]).
(§4) Negative control: 0.3% DMSO
(§5) Each compound is tested across the plate with a single concentration per cell. A minimum of 2 wells are obtained per each concentration.
(§6) Powder stocks and DMSO stocks are stored at room temperature (in the dark). The powder stocks are diluted to 3 mM in 100% DMSO on the day of experiment.
(§7) SyncroPatch specific solutions are used throughout the assay. DMSO remains constant at 0.3% in the external solution throughout the assay.
(§8) The rapid addition protocol is used, in which compound is rapidly applied and then washed off from the cell. To test for PAM activity, the agonist GABA EC10-20 is applied three times (with wash steps in-between) as a control and to show activation reproducibility, followed by a 1 to 2 minute pre-incubation of client compound and then re-application of GABA EC10-20 in the presence of client compound. After a further wash step, maximum GABA (10 mM) is applied.
(§9) Automated patch clamp-recordings are performed using the SyncroPatch 384i. The voltage protocol generation and data collection are performed with PatchController384 V1.9.0 and Data Controller V1.9.0.
(§10) The fold increase is generated using the following equation, (Icomp/Icontrol)−1, where Icomp is the current amplitude in the presence of the compound and Icontrol is the current amplitude in the presence of agonist alone. This builds an EC50 concentration-response curve, where 0 represents no PAM activity and >0 represents PAM activity. […] The % Emax relative to Allopregnanolone is generated using the following equation, • [(IMaxComp/IAveMaxCtrl)*100], where IMaxComp is the individual maximum fold increase in current for each compound and IAveMaxCtrl is the average maximum fold increase generated in the presence of the control, allopregnanolone.
(§11) To test for PAM activity, the agonist GABA EC 10-20 was applied three times (with wash steps in-between) as a control and to show activation reproducibility, followed by a 1 to 2 minutes pre-incubation of client compound and then re-application of GABA EC 10-20 in the presence of client compound. After a further wash step, maximum GABA (10 mM) was applied. Allopregnanolone was utilized as a positive control. FIGS. 5A and 5B show for dose response of EC2-118 in comparison to that of allopregnanolone (positive control).

[2] = molecular target: T2, GABAA α2θ3γ2L (Homo sapiens, UniProt P18507+P28472+P47869); test: as above; type: cell-based; settings: for Potency, α2βy, *EC50 / EC50: PAM mode, GABA EC10-20, 6-point curve up to 10 μM, EC50 called extrapolated; for EC50: read-out: Potency, α2βy, *EC50; for Potency, α2βy, % in brackets: bracketed % beside EC50/IC50
T2 construct: expressed in transfected cells
Experimental: as §1, §2, §3, §4, §5, §6, §7, §8, §9, §10, §11

[3] = system: GABAA receptor; test: Preliminary classification of GABAAR modulation from electrophysiology against 4 GABAA subtypes; type: cell-based; settings: from the four subtype results
Excerpt: As an assessment for potential anxiolytic activity, compounds were screened for in vitro GABAA receptor activity utilizing electrophysiology studies. This is a well-established method of assessing activity of GABAA receptor positive allosteric modulators (PAMs) with known anxiolytic activity. The link between anxiolytic and sedative activity associated with α1/2/3βγ GABAAR subtypes is also well-established by previous studies. and there is a well-established history of clinical efficacy, utility, and risks associated with the use of full GABAAR PAMs [i.e. benzodiazepines (BZDs)] in the treatment of anxiety and seizure disorders.
as §1
The fold increase is generated using the following equation, (Icomp/Icontrol)−1, where Icomp is the current amplitude in the presence of the compound and Icontrol is the current amplitude in the presence of agonist alone. This builds an EC50 concentration-response curve, where 0 represents no PAM activity and >0 represents PAM activity. If a “bell-shape curve” is observed at the higher concentrations, showing a reduction in activity in comparison to previous concentrations, then to allow for a more accurate curve fit, these concentrations are removed from the graphs where necessary and noted in the compound table. The % Emax relative to Allopregnanolone is generated using the following equation, • [(IMaxComp/IAveMaxCtrl)*100], where IMaxComp is the individual maximum fold increase in current for each compound and IAveMaxCtrl is the average maximum fold increase generated in the presence of the control, allopregnanolone.

[4] = molecular target: T3, GABAA α4θ3δ (Homo sapiens, UniProt O14764+P28472+P48169); test: SyncroPatch automated patch-clamp electrophysiology, PAM mode; type: cell-based; settings: for Potency, α4βδ (also printed α4βy), % in brackets: bracketed % beside EC50/IC50
T3 construct: expressed in transfected cells
Experimental: (§12) To evaluate GABAA receptor activity, compounds were evaluated with electrophysiology studies of against 4 GABAA subtypes (GABAA α1β2γ2L, α2θ3γ2L, α5θ3γ2L and α4θ3δ) in positive allosteric modulator (PAM) mode using the SyncroPatch automated platform at room temperature. […] The rapid addition protocol was used, in which compound is rapidly applied and then washed off from the cell. 0.3% DMSO was used as negative control.
as §3, §4, §5, §6, §7
(§13) The rapid addition protocol is used, in which compound is rapidly applied and then washed off from the cell. […] After a further wash step, maximum GABA (10 mM) is applied.
(§14) The voltage protocol generation and data collection are performed with PatchController384 V1.9.0 and Data Controller V1.9.0.
(§15) The fold increase is generated using the following equation, (Icomp/Icontrol)−1, where Icomp is the current amplitude in the presence of the compound and Icontrol is the current amplitude in the presence of agonist alone. […] The % Emax relative to Allopregnanolone is generated using the following equation, • [(IMaxComp/IAveMaxCtrl)*100], where IMaxComp is the individual maximum fold increase in current for each compound and IAveMaxCtrl is the average maximum fold increase generated in the presence of the control, allopregnanolone.
(§16) After a further wash step, maximum GABA (10 mM) was applied. Allopregnanolone was utilized as a positive control.

[5] = molecular target: T4, GABAA α1β2γ2L (Homo sapiens, UniProt P14867+P18507+P47870); test: as above; type: cell-based; settings: for Potency, α1βy, % in brackets: bracketed % beside EC50/IC50
T4 construct: expressed in transfected cells
Experimental: as §12, §3, §4, §5, §6, §7, §13, §14, §15, §16

[6] = system: loss-of-righting-reflex; test: Loss-of-righting-reflex (LORR), alone and with alcohol; type: in vivo; settings: rats
Experimental: Rats were given EC2-118 (3.95 mg/kg IP) and alcohol (3 g/kg) and assessed for duration of loss-of-righting-reflex (LORR). […] The effects of EC2-118 (12.5 mg/kg IP) on alcohol-induced LORR were not determined.

[7] = system: anxiety; test: Open field test (OFT) and elevated plus maze (EPM), IP administration; type: in vivo, rats
Experimental: FIG. 7 is a representation of rat movements during an open field test. Increased time in the open arms signifies anti-anxiety activity. […] The purple lines represent the motion of the rat.
In vivo studies in rats were conducted in the Bello laboratory as preliminary screening for activity of EC2-118. Male and female rats were exposed to an open field test (OFT) and elevated plus maze (EPM) 7 days apart (Kshatriya et al., 2020). Each group (n=8/group, […]) received IP injection 30 min prior to IP dosing of EC2-118 or vehicle control. We performed OFT and EPM in 52 adult SD rats (26 male/26 female). The groups were as follow vehicle (0.9% Saline, 4% Tween 80, and 4% DMSO; n=9 males; n=10 females), 3.95 mg/kg (n=10 males; n=8 females), 12.5 mg/kg (n=7 males, females n=8).

[8] = PAM mode, GABA EC10-20, 6-point curve up to 10 μM
[9] = PAM mode, GABA EC10-20, 6-point curve up to 10 μM, EC50 called extrapolated

T3 sequence (P48169 36-554): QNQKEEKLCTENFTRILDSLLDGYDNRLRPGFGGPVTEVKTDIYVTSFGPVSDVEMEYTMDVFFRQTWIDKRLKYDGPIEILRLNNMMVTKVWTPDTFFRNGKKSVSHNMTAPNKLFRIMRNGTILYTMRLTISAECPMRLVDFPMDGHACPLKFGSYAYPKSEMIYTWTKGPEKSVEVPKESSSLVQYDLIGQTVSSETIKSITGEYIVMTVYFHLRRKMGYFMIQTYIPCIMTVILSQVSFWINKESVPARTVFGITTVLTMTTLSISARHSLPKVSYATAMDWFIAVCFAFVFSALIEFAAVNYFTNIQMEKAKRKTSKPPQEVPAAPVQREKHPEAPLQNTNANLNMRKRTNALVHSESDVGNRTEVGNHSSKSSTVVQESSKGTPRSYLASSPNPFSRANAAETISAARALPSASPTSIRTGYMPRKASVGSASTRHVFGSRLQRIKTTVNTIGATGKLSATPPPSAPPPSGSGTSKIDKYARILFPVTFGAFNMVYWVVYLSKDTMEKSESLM
T3 sequence (P28472 26-473): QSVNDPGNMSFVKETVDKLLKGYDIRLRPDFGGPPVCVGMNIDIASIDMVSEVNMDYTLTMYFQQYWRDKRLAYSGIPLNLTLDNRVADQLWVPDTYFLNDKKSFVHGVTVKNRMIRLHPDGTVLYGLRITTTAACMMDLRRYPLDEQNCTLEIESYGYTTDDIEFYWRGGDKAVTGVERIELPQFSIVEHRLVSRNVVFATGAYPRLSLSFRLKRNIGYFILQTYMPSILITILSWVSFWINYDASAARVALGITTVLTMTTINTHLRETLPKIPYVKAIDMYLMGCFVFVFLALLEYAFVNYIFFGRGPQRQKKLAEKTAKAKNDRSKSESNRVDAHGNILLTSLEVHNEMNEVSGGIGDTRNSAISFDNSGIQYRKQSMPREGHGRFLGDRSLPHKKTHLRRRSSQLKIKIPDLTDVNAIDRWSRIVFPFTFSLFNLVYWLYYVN
T3 sequence (O14764 17-452 limits assumed): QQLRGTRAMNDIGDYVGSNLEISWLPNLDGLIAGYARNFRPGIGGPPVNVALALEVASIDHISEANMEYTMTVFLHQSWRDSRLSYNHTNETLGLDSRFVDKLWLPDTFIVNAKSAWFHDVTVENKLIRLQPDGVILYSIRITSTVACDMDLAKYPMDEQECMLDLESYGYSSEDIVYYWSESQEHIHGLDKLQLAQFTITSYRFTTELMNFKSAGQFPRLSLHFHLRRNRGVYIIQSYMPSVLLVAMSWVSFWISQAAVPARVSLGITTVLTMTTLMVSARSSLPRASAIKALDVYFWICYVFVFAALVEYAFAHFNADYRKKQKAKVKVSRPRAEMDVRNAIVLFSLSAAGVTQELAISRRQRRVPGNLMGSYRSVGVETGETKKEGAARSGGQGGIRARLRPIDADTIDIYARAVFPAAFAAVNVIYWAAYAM
T1 sequence (P31644 32-462): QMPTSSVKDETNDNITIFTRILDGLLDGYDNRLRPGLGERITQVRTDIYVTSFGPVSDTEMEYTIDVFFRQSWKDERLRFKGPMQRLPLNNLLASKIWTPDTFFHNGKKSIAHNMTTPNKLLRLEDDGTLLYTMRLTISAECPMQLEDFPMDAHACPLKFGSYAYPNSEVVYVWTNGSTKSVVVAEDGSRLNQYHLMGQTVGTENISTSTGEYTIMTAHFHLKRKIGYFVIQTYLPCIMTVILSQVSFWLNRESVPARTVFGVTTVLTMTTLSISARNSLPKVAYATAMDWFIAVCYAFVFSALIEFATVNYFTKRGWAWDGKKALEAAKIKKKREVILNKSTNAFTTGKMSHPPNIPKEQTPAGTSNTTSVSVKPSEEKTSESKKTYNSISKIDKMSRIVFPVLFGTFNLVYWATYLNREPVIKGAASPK
T1 sequence (P28472 26-473): as the sequence (P28472 26-473) above
T1 sequence (P18507 40-475): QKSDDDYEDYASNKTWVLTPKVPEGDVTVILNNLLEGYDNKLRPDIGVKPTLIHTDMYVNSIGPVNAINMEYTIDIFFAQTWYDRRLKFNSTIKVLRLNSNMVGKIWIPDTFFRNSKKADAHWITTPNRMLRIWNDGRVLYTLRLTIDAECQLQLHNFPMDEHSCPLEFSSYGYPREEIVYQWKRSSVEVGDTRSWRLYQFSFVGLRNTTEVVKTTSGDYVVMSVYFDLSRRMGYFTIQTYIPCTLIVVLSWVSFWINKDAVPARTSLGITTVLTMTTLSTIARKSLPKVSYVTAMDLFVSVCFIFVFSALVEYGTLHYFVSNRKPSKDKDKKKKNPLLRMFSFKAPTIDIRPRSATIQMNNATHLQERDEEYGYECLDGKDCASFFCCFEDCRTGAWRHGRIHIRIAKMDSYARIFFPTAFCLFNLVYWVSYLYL
T4 sequence (P14867 28-456): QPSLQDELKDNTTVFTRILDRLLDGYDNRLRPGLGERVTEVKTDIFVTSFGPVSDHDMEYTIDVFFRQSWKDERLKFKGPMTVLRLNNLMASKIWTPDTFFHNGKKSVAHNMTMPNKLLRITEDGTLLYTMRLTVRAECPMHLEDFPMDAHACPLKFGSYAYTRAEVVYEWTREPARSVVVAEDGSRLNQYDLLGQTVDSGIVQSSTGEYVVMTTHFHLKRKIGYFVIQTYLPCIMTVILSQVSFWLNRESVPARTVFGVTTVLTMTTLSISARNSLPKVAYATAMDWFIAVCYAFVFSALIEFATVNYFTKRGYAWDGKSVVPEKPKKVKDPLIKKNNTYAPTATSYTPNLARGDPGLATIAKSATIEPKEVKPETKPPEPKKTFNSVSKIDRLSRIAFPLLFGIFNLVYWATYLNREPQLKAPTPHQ
T4 sequence (P47870 25-512 limits assumed): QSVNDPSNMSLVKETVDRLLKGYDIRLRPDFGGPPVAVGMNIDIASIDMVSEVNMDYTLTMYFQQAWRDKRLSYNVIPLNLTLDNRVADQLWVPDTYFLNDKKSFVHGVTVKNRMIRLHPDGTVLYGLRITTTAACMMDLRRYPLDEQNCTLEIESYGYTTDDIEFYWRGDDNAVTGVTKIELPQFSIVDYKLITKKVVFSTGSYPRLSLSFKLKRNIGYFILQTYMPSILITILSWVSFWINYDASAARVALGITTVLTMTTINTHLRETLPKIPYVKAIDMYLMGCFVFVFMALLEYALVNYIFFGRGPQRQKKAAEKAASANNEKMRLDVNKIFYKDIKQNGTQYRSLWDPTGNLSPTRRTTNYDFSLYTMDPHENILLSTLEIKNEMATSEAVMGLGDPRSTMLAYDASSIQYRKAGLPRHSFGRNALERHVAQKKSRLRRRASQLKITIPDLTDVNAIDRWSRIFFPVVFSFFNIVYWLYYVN
T4 sequence (P18507 40-475): as the sequence (P18507 40-475) above
T2 sequence (P47869 29-451): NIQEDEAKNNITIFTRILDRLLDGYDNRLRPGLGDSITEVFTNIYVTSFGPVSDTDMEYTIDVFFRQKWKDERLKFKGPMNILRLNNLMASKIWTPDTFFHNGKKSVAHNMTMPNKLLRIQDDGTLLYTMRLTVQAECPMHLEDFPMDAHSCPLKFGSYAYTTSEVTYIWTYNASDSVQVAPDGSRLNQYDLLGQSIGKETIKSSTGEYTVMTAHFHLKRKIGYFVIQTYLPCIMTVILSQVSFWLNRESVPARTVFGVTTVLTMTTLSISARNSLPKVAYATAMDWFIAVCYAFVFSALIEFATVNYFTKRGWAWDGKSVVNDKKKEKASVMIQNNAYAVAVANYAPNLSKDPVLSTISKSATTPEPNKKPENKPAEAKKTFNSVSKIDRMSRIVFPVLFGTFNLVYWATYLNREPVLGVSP
T2 sequence (P28472 26-473): as the sequence (P28472 26-473) above
T2 sequence (P18507 40-475): as the sequence (P18507 40-475) above

O=c1cc(-c2cccc([N+](=O)[O-])c2)oc2ccc(Br)cc12 [6-bromo-3′-nitroflavone, reference compound]
Potency, α5βy, *EC50 [1, 8]: N.R. | Potency, α2βy, *EC50 [2]: N.R. | Preliminary Classification of type of GABAAR modulation [3]: Partial α1 NAM | IC50 [4]: > 10 µM | Potency, α4βδ (also printed α4βy), % in brackets [4]: −30% | IC50 [5]: 0.0059 µM | Potency, α1βy, % in brackets [5]: −21%

O=C1c2cc(Br)ccc2OC(c2ccccc2)C1(CO)CO (stereo not drawn) [EC2-52, 6-bromo-3,3-bis(hydroxymethyl)-2-phenylchroman-4-one]
EC50 ([1]; PAM mode, GABA EC10-20, 6-point curve up to 10 μM, read-out: Potency, α5βy, *EC50): 1.92 µM | Potency, α5βy, % in brackets ([1]; bracketed % beside EC50/IC50): +22% | Potency, α2βy, *EC50 [2]: N.R. | Preliminary Classification of type of GABAAR modulation [3]: Partial α5 GABAAR PAM | Potency, α4βδ (also printed α4βy), *EC50 [4, 8]: N.R. | Potency, α1βy, *EC50 [5, 9]: N.R.

O=C1c2ccccc2OC(c2cccc([N+](=O)[O-])c2)C1(CO)CO (stereo not drawn) [EC2-104, 3,3-bis(hydroxymethyl)-2-(3-nitrophenyl)chroman-4-one]
Potency, α5βy, *EC50 [1, 8]: N.R. | EC50 [2]: 11.8 µM | Potency, α2βy, % in brackets [2]: +28% | Preliminary Classification of type of GABAAR modulation [3]: Partial α2 GABAAR PAM | EC50 ([4]; PAM mode, GABA EC10-20, 6-point curve up to 10 μM, read-out: Potency, α4βδ (also printed α4βy), *EC50): > 10 µM | Potency, α4βδ (also printed α4βy), % in brackets [4]: +30% | Potency, α1βy, *EC50 [5, 9]: N.R.

O=C1NC(c2cccc([N+](=O)[O-])c2)Nc2ccc(Br)cc21 (stereo not drawn) [EC2-117, 6-bromo-2-(3-nitrophenyl)-2,3-dihydroquinazolin-4(1H)-one]
Potency, α5βy, *EC50 [1, 8]: α1 βy (N.R.) α2βy (N.R.) α5βy (N.R.) α4ßy (N.R.) | Potency, α2βy, *EC50 [2]: α1 βy (N.R.) α2βy (N.R.) α5βy (N.R.) α4ßy (N.R.) | Preliminary Classification of type of GABAAR modulation [3]: Not active | Potency, α4βδ (also printed α4βy), *EC50 [4, 8]: α1 βy (N.R.) α2βy (N.R.) α5βy (N.R.) α4ßy (N.R.) | Potency, α1βy, *EC50 [5, 9]: α1 βy (N.R.) α2βy (N.R.) α5βy (N.R.) α4ßy (N.R.)

O=C1NC(c2cccc([N+](=O)[O-])c2)Oc2ccc(Br)cc21 (stereo not drawn) [EC2-118, 6-bromo-2-(3-nitrophenyl)-2,3-dihydro-4H-benzo[e][1,3]oxazin-4-one]
Potency, α5βy, *EC50 [1, 8]: N.R. | EC50 [2]: 0.125 µM | Potency, α2βy, % in brackets [2]: +26% | Impact on alcohol-induced LORR (duration) ([6]; 3.95 mg/kg IP with alcohol 3 g/kg): did not have a significant impact on alcohol-induced LORR | Induction of LORR by compound alone ([6]; 3.95 mg/kg, 12.95 IP): did not induce an LORR | Preliminary Classification of type of GABAAR modulation [3]: Partial α1/2 GABAAR PAM | Potency, α4βδ (also printed α4βy), *EC50 [4, 8]: N.R. | EC50 ([5]; PAM mode, GABA EC10-20, 6-point curve up to 10 μM, EC50 called extrapolated, read-out: Potency, α1βy, *EC50): 0.136 µM | Potency, α1βy, % in brackets [5]: +29% | Anxiolytic effect in OFT and EPM vs vehicle control ([7]; 3.95 mg/kg IP, male and female SD rats, two-way ANOVA): significant differences between 3.95 mg/kg dose and vehicle control | Effect in the open field test (OFT) ([7]; 12.5 mg/kg IP, rats): did not exhibit a significant effect | Lethargy (observation) ([7]; 12.5 mg/kg IP, rats): increased lethargy

O=C1c2cc(Br)ccc2OC(c2cccc([N+](=O)[O-])c2)C1(CO)CO (stereo not drawn) [EC2-124]
Potency, α5βy, *EC50 [1, 8]: α1ßy (N.R.) α2βy (N.R.) α5βy (N.R.) α4βy (N.R.) | Potency, α2βy, *EC50 [2]: α1ßy (N.R.) α2βy (N.R.) α5βy (N.R.) α4βy (N.R.) | Preliminary Classification of type of GABAAR modulation [3]: Not Active | Potency, α4βδ (also printed α4βy), *EC50 [4, 8]: α1ßy (N.R.) α2βy (N.R.) α5βy (N.R.) α4βy (N.R.) | Potency, α1βy, *EC50 [5, 9]: α1ßy (N.R.) α2βy (N.R.) α5βy (N.R.) α4βy (N.R.)
